Source: a melting point compilation (Tetko et al.; mined from patent text by program, amines drawn as free bases though some values may be those of a salt)

| SMILES | melting point [°C] |
| --- | --- |
| O=C(O)CCCNc1cc(Oc2ccc(C(F)(F)F)cc2Cl)ccc1[N+](=O)[O-] | 126 to 127 |
| CCCN(CCC)C1Cc2c[nH]c3ccc(C(=O)c4ccccc4)c(c23)C1 (centres undefined) | 150 |
| COc1ccc2c(c1)OC(CCO)C(=O)N2Cc1cccc([N+](=O)[O-])c1 (centres undefined) | 116 to 118 |
| CCOC(=O)c1cn(C)c2cc(C(F)(F)F)ccc2c1=O | 222 to 224 |
| CC(=O)OC1(C)CC(=O)OC(CCc2ccc(OCc3ccccc3)cc2)C1 (centres undefined) | 98 to 101 |
| Clc1ccc(N(Cc2ccccc2)c2ccccc2)cc1 | 94 to 95 |
| CC1OC(n2c(Cl)nc3cc(Cl)c(Cl)cc32)C(O)C1O (centres undefined) | 85 to 86 |
| O=C1N(c2cc(Cl)cc(Cl)c2)C(=O)C2(Cc3ccc(Br)cc3)CCCCN12 (centres undefined) | 129 |
| CCCNCCC(=O)Nc1ccc2c(c1)C(=O)c1cc(NC(=O)CCNCCC)ccc1C2=O | 170 |
| Cc1cc(-n2ccnc2)c2cccc(OCc3c(Cl)ccc(S(=O)(=O)N4CCC[C@H]4C(=O)N4CCN(Cc5cccnc5)CC4)c3Cl)c2n1 | 102 |
| CN(C)C(C(=O)C1CCCCC1)C1(c2ccc(Cl)c(Cl)c2)CCC1 (centres undefined) | 79 to 80 |
| COc1c(Br)c(C)nc(C)c1-c1ccc(Oc2ccc(OC(F)(F)F)cc2)cc1 | 39 to 41 |
| CC1(C)CC(=O)c2c(NCc3ccccc3)sc(-c3cc[nH]n3)c2C1 | 204 to 206 |
| CC(=O)N1CCc2ccc(Cl)c(Cl)c2C1 | 99.5 to 100 |
| O=C(O)c1ccccc1-c1ccc(C(F)(F)F)c(Cl)c1 | 181 to 184 |
| CCOCc1nc2c(N)nc3cc(OCCCCCCNC(C)=O)ccc3c2n1CC(C)(C)NC(=O)NC(C)C | 90 to 110 |
| COC(=O)Cc1ccc(CNC(=O)[C@@H](CCCNC(N)=N[N+](=O)[O-])NC(=O)C(c2ccccc2)c2ccccc2)cc1 | 158 to 160 |
| CSC(=C[N+](=O)[O-])NCCCBr | 92 to 92.5 |
| CCOc1cccc(-c2cnc3[nH]cc(C(=O)C(C)(C)C)c3n2)c1 | 195 to 196 |
| CC(=O)c1ccc(-c2ncc[nH]2)cc1 | 213 to 216 |
| Nc1cc(-c2ccncc2)cc2nc(-c3ccco3)nn12 | 294 to 296 |
| Nc1cc(N2C(=O)C3=C(CCCC3)C2=O)c(F)cc1Cl | 164 to 165 |
| O=C(O)c1ccccc1OCCN1CCC(c2cn(CC3CC3)c3cc(F)ccc23)CC1 | 97 |
| CCC12CCC3c4ccc(OC)cc4C(C)CC3C1CCC2O (centres undefined) | 150 to 160 |
| CCS(=O)(=O)c1ncc(C(F)(F)F)cn1 | 98 |
| COc1c2c(c(OC)c(OC)c1OC)CCC(CCn1cnc3ccccc31)CC2 | 121 to 123 |

| SMILES | melting point [°C] |
| --- | --- |
| COC(=O)NNC(=S)Cc1ccc(OC)cc1 | 94.5 to 95 |
| C#CCN1C(=O)N(c2ccc(C#N)c(C(F)(F)F)c2)C(=O)C1(CF)CF | 126 to 127 |
| O=C(O)c1cncc2cccc([N+](=O)[O-])c12 | 285 |
| N#CCc1ccc(CN2CCN(c3ccc(F)cc3)CC2)cc1 | 111 to 113 |
| CCOc1nn(Cc2ccc(OC3CCN(c4ccccn4)CC3)cc2)cc1CCC(=O)O | 142 to 143 |
| Cc1cc(-c2cccc(C3=Nc4cc(O)c(-c5ccccc5F)cc4NC(=O)C3)c2)on1 | 237 |
| CC(C)OCC1(C(C)(F)F)c2cc(Cl)ccc2Nc2ncccc21 (centres undefined) | 148 to 149 |
| COc1cc(N)c(Cl)cc1C(=O)NCC1CCN(CCCCSc2ccccc2)CC1 | 102 to 105 |
| NC(=S)NC[C@H]1CN(c2ccc(N3CCOCC3)c(F)c2)C(=O)O1 | 199 to 200 |
| COc1ccc(C(=O)NCCc2ccc(-c3ccc(O)cc3)cc2)c(OC)c1 | 190 |
| CC(C)(Oc1ccc(CC(=O)Nc2ccccc2)cc1)C(=O)O | 198 |
| O=S(=O)(CCl)c1c(Cl)nc(Cl)nc1Cl | 152 to 153 |
| CC(C)(C)C(NC(=O)c1cccc(-c2ccccc2)c1)Nc1c(Nc2cccnc2)c(=O)c1=O (centres undefined) | 240 to 241 |
| N#Cc1ccc(C(F)(F)F)cc1NN=Nc1ccccc1 | 139 to 141 |
| CCS(=O)(=O)c1cc(C(=O)NCC2CCCN2CC2CCC2)c(OC)cc1N (centres undefined) | 170 |
| CCOC(C#N)Cc1ccc(O)c(N)c1 (centres undefined) | 114 to 115 |
| CCOC(=O)C(=O)CC(=O)/C=C/c1ccc(Cl)c(OC)c1F | 67.5 to 69 |
| ClCCCOc1ccc2ccccc2c1 | 46 to 49 |
| COc1cc2c(cc1OC)NC(=O)CCC2 | 153 to 156 |
| CC(C)OC(=O)C1=C2SCC(=CC(=O)Sc3ccccc3)N2CC1 | 216 to 220 |
| Nc1nc(OS(=O)(=O)c2ccccc2)ncc1F | 139 to 141 |
| CCOCC(COCC)Oc1ccc(/C=C/CO)c(Oc2ncc(C(F)(F)F)cc2Cl)c1 | 52.5 to 54.5 |
| CC(=O)c1ccc(NC(=O)C(C)(C)C)nc1 | 113 to 115 |
| COC(=O)C1CCC2C3CCC4CC(O)C(OC)CC4(C)C3C(N)CC12C (centres undefined) | 177 to 184 |
| COc1cc(OC)nc(C(=O)c2nscc2C(=O)N(C)c2ccccc2)n1 | 140 to 142 |
| CC(C)(C)OC(=O)CCc1cccc(-c2nc(=O)c3ccc(Cl)cc3s2)n1 | 168 |

| SMILES | melting point [°C] |
| --- | --- |
| C[C@@H](c1nc(-c2ccc(C#N)cc2)cs1)[C@](O)(Cn1cncn1)c1ccc(F)cc1F | 164 to 166 |
| COC(=O)c1cc(=O)c2cc(C(F)(F)F)ccc2[nH]1 | 289 to 291 |
| Nc1nc(-c2cc(Cl)ccc2Cl)nc(N2CCN(c3ccccc3)CC2)n1 | 203 to 206 |
| O=C(O)c1cn(CCF)c2c(F)c(F)c(F)cc2c1=O | 208 to 210 |
| COC(=O)COc1ccc(C(=O)CNC(=O)c2ccc(C#N)cc2)cc1 | 200 to 203 |
| COc1ccc([C@@H]2Sc3cc(Oc4ccc(F)cc4)ccc3NC(=O)[C@@H]2O)cc1 | 198 to 200 |
| CC(C)N(Cc1ccc(COc2cccc3c2CN(C2CCC(=O)NC2=O)C3=O)cc1)C(C)C (centres undefined) | 201 to 203 |
| COc1ccc(CCn2ccc3ccc(-c4cccc(C(=O)NCCC#N)c4)nc32)cc1OC | 138 to 139 |
| O=C(CC1CCCCC1=O)c1ccccc1 (centres undefined) | 44 to 45 |
| N#CC(=NOCCn1cncn1)C(N)=O | 137 |
| COC(=O)Cc1cc(OC)c(OC)cc1[N+](=O)[O-] | 110 to 111 |
| CCOc1cc([N+](=O)[O-])ccc1C(O)c1cc(C)ccn1 (centres undefined) | 114 to 115 |
| Cc1cc(O)c(O)cc1S(=O)(=O)c1ccc(Cl)c([N+](=O)[O-])c1 | 196 to 197 |
| NS(=O)(=O)c1cc2c(Cl)c(O)ccc2s1 | 198 to 201 |
| CCCCCn1cc(CCCC)n(Cc2ccc(-c3ccccc3-c3nnn[nH]3)nc2)c1=O | 162 to 164 |
| CNS(=O)(=O)CCS(C)(=O)=O | 116 to 117 |
| CCOc1cc2ncc(C#N)c(Nc3ccc4c(c3)S(=O)(=O)C=C4)c2cc1OCC | 155 to 160 |
| c1ccc2c(c1)CCCC1C2=NNC1c1ccncc1 (centres undefined) | 152 to 157 |
| O=C(O)CCCNC(=O)c1ccccc1NC(=O)c1ccccc1Cl | 110 to 112 |
| Cn1ccnc1SCC(O)(Cn1cncn1)c1ccc(Cl)cc1Cl (centres undefined) | 159 to 161 |
| O=c1cc(Cl)c2nc3ccc(F)cc3sc-2c1Cl | 245 to 247 |
| O=C1CSC(=S)N1N=c1sc2ccc(Cl)cc2s1 | 312 to 314 |
| CC1=CCCC2C1(C)CCC(C)C2(C)Cc1cc(O)ccc1O (centres undefined) | 146 to 148 |
| C[C@]1(COc2ccc(N3CCC(N4CCN(c5ccc(Cl)cc5)CC4)CC3)cc2)Cn2cc([N+](=O)[O-])nc2O1 | 247 to 249 |
| CCCS(=O)(=O)N(COC)C(=O)c1nc(OC)cc(OC)n1 | 59 to 62 |
| CCC(=O)c1cc2c(=O)n(NS(C)(=O)=O)c(=O)[nH]c2cc1C(F)(F)F | 234 to 236 |

| SMILES | melting point [°C] |
| --- | --- |
| CC1CCCCc2ncc(C#N)c(=O)n21 (centres undefined) | 154 |
| CS(=O)(=O)Nc1ccccc1Sc1c(C(=O)O)sc2cc(OCc3cccnc3)ccc12 | 258 to 260 |
| CN1CCN(Cc2cc(-c3ccc4c(c3)CCO4)nn(Cc3ccc(F)cc3)c2=O)CC1 | 179 to 180 |
| CCCNC(=O)c1ccc(-c2ccc3nnn(C(C)(C)c4ccc5ncccc5c4)c3n2)cc1F | 162 to 164 |
| N#Cc1cscc1Sc1ccccc1 | 32 to 34 |
| COc1ccc2nc(C)cc(-n3cncn3)c2c1 | 117 to 118 |
| CNC1=Nc2ccccc2C(O)(c2ccccc2)C1(C)C (centres undefined) | 192 to 194 |
| CCC1CN(c2nc(C)nc(NC)n2)c2ccccc21 (centres undefined) | 168 to 170 |
| CC(C)(C)OC(=O)N1CCc2ccc3ccn(CCO)c3c2CC1 | 226 to 229 |
| CCCC(=O)NC1=CC(=O)c2ccc(C)nc2C1=O | 188 to 189 |
| Cn1nc(-c2c(Cl)cncc2Cl)nc1Cc1ccc(Cl)cc1Cl | 79 to 81 |
| CN1CCN(c2ccc([N+](=O)[O-])cc2)S1(=O)=O | 155 to 163 |
| c1ccc(-c2cnc(Nc3ccncn3)s2)cc1 | > 250 |
| COc1cc[nH]c1C=C1C(=O)Nc2cccc(C#CC(O)c3sccc3OC)c21 (racemic) | 213 to 216 |
| CCNc1nc(SC)ncc1CO | 152 to 156 |
| CNS(=O)(=O)CC(=O)c1cc(OC)c(OC)c(OC)c1N | 125 to 127 |
| O=C(c1cccs1)c1cccc2nc(N[C@@H]3CCc4ccccc43)ccc12 | 176 |
| O=C(O)Cc1cnn(-c2ccc(Cl)cc2)c1-c1ccccc1 | 110 to 111 |
| Cc1nc(Cl)c([N+](=O)[O-])c(NCC(C)(C)N)c1C | 89 to 94 |
| COc1ncc(C)cc1Nc1cc(C#N)c2c(c1)[C@@H]1CNCC[C@@H]1N2C | 76 to 80 |
| O=C(O)C(OCc1ccc(Cl)cc1)(C(F)(F)F)C(F)(F)F | 98 to 99 |
| O=Cc1ccc2c(n1)COC(c1ccccc1)O2 (centres undefined) | 110 to 114 |
| CCc1cc(OCc2ccccc2)ccc1C(=O)O | 132 to 133 |
| C=CCN(CC=C)c1nc(NC(=O)OCC)n2oc(=O)nc2n1 | 172 to 174 |
| CCOC(=O)NCc1cc(-c2ccc(Cl)cc2)no1 | 137 |
| CCN1C(=O)C(C)(C)c2ccc(C(=O)Nc3ccccc3)cc21 | 227 to 230 |
